From ChEMBL document CHEMBL1201862, “PubChem BioAssay data set” (2004)
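Cells were grown in 96-well plates and exposed to each compound for 48 hours at five concentrations; endpoints were interpolated linearly between bracketing concentrations, or set to the highest concentration if not reached. Here, GI50 denotes the concentration required for 50% inhibition of growth.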 The source made the active and inactive calls. Cut-off read from the data, not from the text of the source: active = GI50 up to about 1.1 µM and inactive = higher.

What was measured:
Assay in all cases: NCI tumour cell line growth inhibition, 48 h
NCI-H23 = system: NCI-H23
MOLT-4 = system: MOLT-4
UACC-257 = system: UACC-257
IGROV-1 = system: IGROV-1
OVCAR-3 = system: OVCAR-3
CCRF-CEM = system: CCRF-CEM
M14 = system: M14
HOP-62 = system: HOP-62
NCI-H522 = system: NCI-H522
HT-29 = system: HT-29
HCT-15 = system: HCT-15
NCI-H460 = system: NCI-H460
ACHN = system: ACHN
HCC 2998 = system: HCC 2998
SR = system: SR
SF-268 = system: SF-268
SK-MEL-28 = system: SK-MEL-28
NCI/ADR-RES = system: NCI/ADR-RES
OVCAR-5 = system: OVCAR-5
SN12C = system: SN12C
TK-10 = system: TK-10
LOX IMVI = system: LOX IMVI
U-251 = system: U-251
UACC-62 = system: UACC-62
MDA-N = system: MDA-N
HCT-116 = system: HCT-116
UO-31 = system: UO-31
CAKI-1 = system: CAKI-1
SW-620 = system: SW-620
MDA-MB-231 = system: MDA-MB-231
DU-145 = system: DU-145
MCF7 = system: MCF7
SF-539 = system: SF-539
COLO 205 = system: COLO 205
RPMI-8226 = system: RPMI-8226
786-0 = system: 786-0
PC-3 = system: PC-3
OVCAR-8 = system: OVCAR-8
T47D = system: T47D
Hs-578T = system: Hs-578T
HOP-92 = system: HOP-92
SK-MEL-5 = system: SK-MEL-5
BT-549 = system: BT-549
KM12 = system: KM12
A549 = system: A549
SK-MEL-2 = system: SK-MEL-2
SF-295 = system: SF-295
SNB-19 = system: SNB-19
SNB-75 = system: SNB-75
MDA-MB-435 = system: MDA-MB-435
EKVX = system: EKVX
OVCAR-4 = system: OVCAR-4
HL-60 = system: HL-60
SK-OV-3 = system: SK-OV-3
NCI-H226 = system: NCI-H226
K562 = system: K562
RXF 393 = system: RXF 393
Malme-3M = system: Malme-3M

Measured: GI50

CC(C)C1C(=O)N2CCCC2C2(O)OC(NC(=O)C3C=C4c5cccc6[nH]cc(c56)CC4N(C)C3)(C(C)C)C(=O)N12 (stereo not drawn)
20.5 µM: HCT-15
inactive: NCI-H23 26.9 µM | MOLT-4 17 µM | UACC-257 28.7 µM | IGROV-1 14.9 µM | OVCAR-3 17.9 µM | CCRF-CEM 24.7 µM | M14 23.8 µM | HOP-62 23.4 µM | NCI-H522 21 µM | HT-29 18 µM | NCI-H460 19 µM | ACHN 18.9 µM | HCC 2998 19.7 µM | SR 32.4 µM | SF-268 41.1 µM | SK-MEL-28 25.5 µM | NCI/ADR-RES 21.1 µM | OVCAR-5 13.2 µM | SN12C 35.4 µM | TK-10 21.8 µM | LOX IMVI 18.1 µM | U-251 26.4 µM | UACC-62 18.1 µM | MDA-N 25 µM | HCT-116 17.9 µM | UO-31 13.5 µM | CAKI-1 16.7 µM | SW-620 30.1 µM | MDA-MB-231 15.9 µM | DU-145 35.4 µM | MCF7 35.8 µM | SF-539 19.8 µM | COLO 205 20.7 µM | RPMI-8226 16.2 µM | 786-0 17.9 µM | PC-3 21.1 µM | OVCAR-8 19.2 µM | T47D 47.6 µM | Hs-578T 22.5 µM | HOP-92 14.2 µM | SK-MEL-5 20.6 µM | BT-549 25.4 µM | KM12 20.7 µM | A549 20.7 µM | SK-MEL-2 17.7 µM | SF-295 28.2 µM | SNB-19 44.4 µM | SNB-75 15.3 µM | MDA-MB-435 29.2 µM | EKVX 19.5 µM | OVCAR-4 18.3 µM | HL-60 27 µM

COc1ccc2c(c1)[C@@]13CCCC[C@H]1[C@@H](C2)N(C)CC3=O
inactive: NCI-H23 17.5 µM | MOLT-4 19.7 µM | UACC-257 16.5 µM | IGROV-1 17.4 µM | OVCAR-3 17.4 µM | CCRF-CEM 19.2 µM | SK-OV-3 16 µM | M14 16.1 µM | HOP-62 > 100 µM | NCI-H522 18.3 µM | HT-29 21.5 µM | NCI-H460 20.8 µM | ACHN 16.6 µM | HCC 2998 16.8 µM | SR 12.4 µM | SF-268 17.2 µM | SK-MEL-28 16.1 µM | NCI/ADR-RES 26.9 µM | OVCAR-5 17.3 µM | SN12C 21.4 µM | TK-10 19 µM | LOX IMVI 16.9 µM | U-251 22.2 µM | NCI-H226 21.3 µM | UACC-62 16.9 µM | MDA-N 15.3 µM | HCT-116 16.2 µM | K562 28 µM | UO-31 18.7 µM | CAKI-1 28.3 µM | MDA-MB-231 18.5 µM | DU-145 21.8 µM | MCF7 18.3 µM | COLO 205 17.3 µM | RPMI-8226 25.6 µM | 786-0 17.9 µM | PC-3 14.8 µM | OVCAR-8 19.3 µM | T47D 17.5 µM | RXF 393 15.3 µM | Hs-578T 19.2 µM | Malme-3M 18.5 µM | HOP-92 13.6 µM | SK-MEL-5 22.6 µM | BT-549 17.4 µM | KM12 18.1 µM | A549 19.9 µM | SK-MEL-2 25.2 µM | SF-295 64.9 µM | SNB-19 76.9 µM | MDA-MB-435 19 µM | EKVX 18.5 µM | OVCAR-4 16.1 µM | HL-60 8.04 µM
17.8 µM: HCT-15
